Experimental data as given in article PMC4512978, “Synthesis and evaluation in rats of homologous series of [^18F]-labeled dopamine D2/3 receptor agonists based on the 2-aminomethylchroman scaffold as potential PET tracers” (EJNMMI Research, 2015).

Tests used:
D2/3R [1] = experiment: MicroPET study in rats; assay type: in vivo, Sprague-Dawley rats; details: saline pre-treated rats; peak (45 min post-injection for [^18F]FEt-AMC13 and [^11C]raclopride)
Method: Animal experiments were performed by licensed investigators in compliance with the Law on Animal Experiments of The Netherlands. The protocol was approved by the Committee on Animal Ethics of the University of Groningen. Young male (10–12 weeks of age, 300–350 g body weight) Sprague-Dawley rats (Harlan, the Netherlands) were used for all experiments. The rats were maintained at a 12-h light/12-h dark regime and were fed standard laboratory chow ad libitum.
Distribution of the radiotracers was studied in rats pre-treated, at random, with physiological saline (controls) or raclopride tartrate (1 mg/kg calculated per raclopride base, equivalent to 2.9 μmol/kg). Saline and raclopride were administered intravenously (1 mL/kg injected volume).
An additional group of saline pre-treated rats, injected with [^11C]raclopride, served as positive controls for D2/3R-specific brain uptake.
Two rats were scanned simultaneously. Before all manipulations, animals were anesthetized with a mixture of isoflurane/air (inhalation anesthesia, 5 % ratio during induction, 2 % at maintenance). Cannulae were placed into the rats’ left femoral arteries and veins; the operation took 45–50 min. The rats were positioned supine inside the camera (Focus 220 microPET, Siemens-Concorde), one above the other with their heads in the camera’s field of view. A 515-s transmission scan with a Co-57 point source was performed. Tracer was injected through the venous cannula as a slow bolus (1 mL volume, 60 s long) using an infusion pump. The second (upper) animal was injected 16 min after the first (lower).
PET acquisition was started during the injection of radioactivity in the first rat. A 106-min long (76 min long in the case of [^11C]raclopride) list-mode acquisition protocol was used for the scan.
List-mode data from the 106-min-long and 76-min-long scans were reframed into, respectively, 90-min-long and 60-min-long dynamic sequences of 6 × 10, 4 × 30, 2 × 60, 1 × 120, 1 × 180, 4 × 300, 3 × 600, and (for 90-min-long scans) 2 × 900 s frames. The data were reconstructed per time frame using an iterative reconstruction algorithm (attenuation-weighted 2-dimensional ordered-subset expectation maximization, provided by Siemens; 4 iterations, 16 subsets; zoom factor 2). Datasets were fully corrected for random coincidences, scatter, and attenuation. Data from the transmission scan were used for attenuation correction. The final datasets consisted of 95 slices, with a slice thickness of 0.8 mm and an in-plane image matrix size of 128 × 128 and pixel size of 0.47 × 0.47 mm.
Reconstructed images were analyzed with Inveon 2.0 software (Siemens Medical Solutions, USA, Inc). Regions of interest (ROIs) were drawn manually on a T2-weighted MRI template of rat brain around the striatum, brainstem, cortex, hippocampus, hypothalamus, thalamus, olfactory bulbs, and cerebellum around the whole brain and around the pituitary gland. The MRI template was co-registered with the PET scan by image fusion. The time-activity curves (TAC) per ROI were determined in Bq/cm^3 units and converted into standardized uptake values (SUVs).
(§1) Degree of D2/3R-specific binding of the tracers was characterized by BPND (as given above) or the specific binding ratio (SBR) given as target region activity/cerebellar activity - 1. Both were calculated under control conditions and in response to the raclopride challenge.

[2] = system: D2/3R against serotonin-1A and adrenergic α1 receptors; set-up: method as in PMID 9435894; details: cited from earlier work
D2/3R [3] = details: cited from earlier work; for displacement of apparent D2/3R-specific striatal uptake: Sprague-Dawley rats, 1–2 mg/kg (2.9–5.8 μmol/kg) raclopride
D2/3R [4] = experiment: In vitro autoradiography of rat brain slices; assay type: binding, Sprague-Dawley rats; details: for Striatal SBR % change relative to control condition, Raclopride / Striatal SBR, Raclopride: with 10 μM raclopride; for Striatal SBR % change relative to control condition, GTP / Striatal SBR, GTP: with 100 μM GTP
Method: In vitro autoradiography assay was performed as previously described. Frozen brains of young (10–12 weeks of age; 300–350 g body weight) male Sprague-Dawley rats (Harlan, Netherlands) were cut at −12 °C into sagittal slices 20 μm thick using a Leica microtome, and the slices were thaw-mounted on Superfrost (70 × 22 mm, Fischer) adhesive slides. Only slices containing both striatal and cerebellar regions were used. The slides with slices mounted them were allowed to dry, then put into storage boxes with silica gel bags and stored at −80 °C.
On the day of the experiment (within 1 week from the preparation of the slices), the slides were taken out of storage and allowed to come to room temperature for 5–10 min. Then, 1–1.2 mL of incubation buffer (50 mM Tris-HCl, 5 mM KCl, 2 mM CaCl2, 2 mM MgCl2, 120 mM NaCl, pH 7.4 25 °C) was applied per slide, and the slides were pre-incubated for 15 min at room temperature. The buffer was then removed, and the slides were placed into staining jars containing radioligand solution (concentration range of 0.1–10 nM) in the incubation buffer with or without 10 μM raclopride (D2/3 antagonist) or 100 μM guanosine-5'-triphosphate sodium salt (GTP, stimulator of G-protein uncoupling from the receptors). After 35 min of incubation at 37 °C, slides were washed once with ice-cold incubation buffer (3.5 min) and dipped for 30 s into ice-cold distilled water to remove buffer salts.
After drying the slides in a stream of room-temperature air, they were exposed on phosphor storage screens for 6–10 h. The storage screens were read by Cyclone Storage Phosphor System (Packard Instruments Co.). Quantification of plate readings was done with OptiQuant software (version 3.00, Packard Instruments Co.).
as §1

[5] = LogD measurement (n-octanol/phosphate buffer); assay type: physicochemical; details: n-octanol / 1 M phosphate buffer pH 7.4
Method: LogD of the tracers was measured using the radioactivity remaining on the HLB SPE cartridges after their elution with ethanol during the tracer formulation procedure (see above). The cartridge was dried with nitrogen for 5 min and eluted with at least 1.5 mL n-octanol. A 500 μL portion of octanol eluate was mixed with 500 μL of 1 M phosphate buffer (pH 7.4) and vigorously vortexed for 5 min. The mixture was then centrifuged at 17,000g for 10 min and 3 × 100 μL aliquots of organic and aqueous phase were loaded into a gamma-counter for radioactivity measurement. To correct for possible presence of radioactive impurities in the tracer, aliquots of organic and aqueous phases were later analyzed by radio-TLC, and the counts obtained from the gamma-counter were corrected according to the percentage of impurities found in aqueous and organic phases. LogD was calculated with the following formula: LogD=lgCPMorg×Xorgtracer/CPMaq×Xaqtracer,
where CPMorg is the mean radioactivity of the organic aliquots, Xorgtracer is the mean percentage of radioactivity accounting for intact tracer in organic aliquots (as determined from radio-TLC), and CPMaq and Xaqtracer are the corresponding values for the aqueous phase.
For each tracer batch used for logD determination, the experiment was performed in duplicate. LogD values are means calculated from at least two independent experiments.

D2/3R [6] = experiment: Kinetic analysis of PET data (1TCM, 2TCM, Logan, SRTM); assay type: in vivo, Sprague-Dawley rats; details: 1 mg/kg raclopride, measured with [^18F]FEt-AMC13
Method: Kinetic analysis is described using the nomenclature proposed by Innis et al.. ROI TACs of [^18F]FEt-AMC13 were analyzed with one-tissue and two-tissue compartmental models of reversible binding (1TCM and 2TCM, respectively) to obtain individual rate constants. From these, the regional distribution volumes (VT) were calculated and compared to those obtained with Logan graphical analysis. Binding potentials (BPND) were calculated from the distribution ratios as VT (target) / VT (cerebellum) – 1, or estimated with the simplified reference tissue model (SRTM) using the cerebellum as reference region.
Metabolite-corrected plasma-derived arterial input function and whole blood time-activity curve were used for Logan, 1TCM, and 2TCM analyses. Fractional cerebral blood volume was set to 3.6 % [27]. For one rat in the raclopride-treated group, no input curves could be obtained; therefore, its PET data were only analyzed with SRTM.
as §1

Row | logD [5] | SMILES | Striatal SBR % change relative to control condition, Raclopride (D2/3R [4]) [%] | Striatal SBR, Raclopride (D2/3R [4]) | Striatal SBR % change relative to control condition, GTP (D2/3R [4]) [%] | Striatal SBR, GTP (D2/3R [4]) | also measured
1 | – | CCN1CCC[C@H]1CNC(=O)c1c(O)c(Cl)cc(Cl)c1O[11CH3] (racemic) [[^11C]raclopride, reference compound] | – | – | – | – | Striatum-to-cerebellum uptake ratio (PET) (D2/3R [1]): 7.45 ± 1.60
2 | – | Oc1ccc2c(c1)O[C@@H](CNCc1ccccc1)CC2 [(R)-2-[(benzylamino)methyl]chroman-7-ol] | – | – | – | – | selectivity [2]: selective for D2/3R against serotonin-1A and adrenergic α1 receptors
3 | – | CCCN1CCc2cc(O[11CH3])cc3c2C1Cc1ccc(O)c(O)c1-3 (stereo not shown) [[^11C]MNPA] | – | – | – | – | displacement of apparent D2/3R-specific striatal uptake (D2/3R [3]): > 90%
4 | – | CC[11CH2]N1CCO[C@@H]2c3cc(O)ccc3CCC21 (stereo partly shown) [[^11C]PHNO] | – | – | – | – | displacement of apparent D2/3R-specific uptake (D2/3R [3]; 0.2 mg/kg (0.58 μmol/kg) raclopride): over 80%; displacement of apparent D2/3R-specific striatal uptake (D2/3R [3]): > 90%
5 | – | CCCN(CCC[18F])C1CCc2c(O)cccc2C1 (stereo not shown) [[^18F]5-OH-FPPAT] | – | – | – | – | striatum-to-cerebellum ratio (D2/3R [3]; rats): 2
6 | 2.71 ± 0.07 | Oc1ccc2c(c1)O[C@@H](CNCCN1CCN(c3ccc(OCCCC[18F])cc3)CC1)CC2 [[^18F]FBu-AMC15] | −64 | 0.25 ± 0.23 | −67 | 0.23 ± 0.23 | –
7 | 1.98 ± 0.08 | Oc1ccc2c(c1)O[C@@H](CNCc1ccc(OCCC[18F])cc1)CC2 [[^18F]FPr-AMC13] | −80 | 0.41 ± 0.23 | −80 | 0.42 ± 0.23 | –
8 | 2.39 ± 0.001 | Oc1ccc2c(c1)O[C@@H](CNCCN1CCN(c3ccc(OCCC[18F])cc3)CC1)CC2 [[^18F]FPr-AMC15] | −61 | 0.39 ± 0.22 | −63 | 0.37 ± 0.24 | –
9 | – | CCN1CCC[C@H]1CNC(=O)c1c(O)c(Cl)cc(Cl)c1OC [raclopride, reference compound] | – | – | – | – | raclopride-induced D2/3R occupancy (modified Lassen plot) (D2/3R [6]): 20–25%
